Data reported in patent US20040077667A1, “Quinazolinone derivatives” (priority 2000, published 2004).

Legend:
recombinant human PARP = recombinant human PARP (Homo sapiens, UniProt P09874); experiment: PARP inhibitory activity (in vitro assay); assay type: biochemical; settings: 32P-NAD, 15 minutes at room temperature
Procedure: B. PARP Inhibitory Activity (In Vitro Assay)
The recombinant human PARP (5.3 mg protein/ml) were incubated with a test compound in a 100 μl reaction buffer containing the indicated concentration of 1 mCi/ml ^32P-NAD, 50 mM Tris-HCl, 25 mM MgCl2, 1 mM DTT (dithiothreitol), 0.05 mM NAD (nicotinamido adenine dinucleotide), 1 mg/ml activated DNA, pH8.0. Incubation was for 15 minutes at a room temperature and the reaction was stopped by the addition of 200 μl of ice-cold 20% tricholoroacetic acid followed by rapid filtration through GF/B filters. The filters were treated with scintillation fluid and acid-insoluble counts were measured for quantification of unit activity.
PARP inhibitory activity (%)=[1-(enzyme activity with test compound)/(enzyme activity with vehicle)]×100

[1] = test system: Mice MPTP(N-methyl-1,2,3,6-tetrahydropyridine)-induced Parkinson's model; experiment: Effect on the level of striatal dopamine and its metabolite in mice MPTP-induced Parkinson's model; assay type: in vivo; settings: 32 mg/kg, two i.p. injections, four days after last MPTP, *P < 0.05 vs MPTP
Procedure: C. Effect of Test Compound on the Level of Striatal Dopamine and its Metabolite in Mice MPTP([…])-induced Parkinson's model
Mice received four i.p. injections of MPTP-HCl (20 mg/kg) in saline at 2 hours intervals and two i.p. injections of Test compound at 30 minutes before 1st injection and 3rd injection of MPTP.
Four days after the last MPTP injection, mice were sacrificed, brains were quickly removed, and striata were dissected out on an ice-cold glass Petri dish. Samples were homogenized in a buffer of 0.1M perchloric acid containing isoproterenol as internal standard. HPLC with electrochemical detection was used to measure striatal levels of DA (dopamine), DOPAC (dihydroxyphenylacetic acid) and HVA (homovanilic acid).
The level of DA, DOPAC and HVA were expressed as a percentage of Normal taken as the 100%.

Chain of recombinant human PARP (P09874 whole entry): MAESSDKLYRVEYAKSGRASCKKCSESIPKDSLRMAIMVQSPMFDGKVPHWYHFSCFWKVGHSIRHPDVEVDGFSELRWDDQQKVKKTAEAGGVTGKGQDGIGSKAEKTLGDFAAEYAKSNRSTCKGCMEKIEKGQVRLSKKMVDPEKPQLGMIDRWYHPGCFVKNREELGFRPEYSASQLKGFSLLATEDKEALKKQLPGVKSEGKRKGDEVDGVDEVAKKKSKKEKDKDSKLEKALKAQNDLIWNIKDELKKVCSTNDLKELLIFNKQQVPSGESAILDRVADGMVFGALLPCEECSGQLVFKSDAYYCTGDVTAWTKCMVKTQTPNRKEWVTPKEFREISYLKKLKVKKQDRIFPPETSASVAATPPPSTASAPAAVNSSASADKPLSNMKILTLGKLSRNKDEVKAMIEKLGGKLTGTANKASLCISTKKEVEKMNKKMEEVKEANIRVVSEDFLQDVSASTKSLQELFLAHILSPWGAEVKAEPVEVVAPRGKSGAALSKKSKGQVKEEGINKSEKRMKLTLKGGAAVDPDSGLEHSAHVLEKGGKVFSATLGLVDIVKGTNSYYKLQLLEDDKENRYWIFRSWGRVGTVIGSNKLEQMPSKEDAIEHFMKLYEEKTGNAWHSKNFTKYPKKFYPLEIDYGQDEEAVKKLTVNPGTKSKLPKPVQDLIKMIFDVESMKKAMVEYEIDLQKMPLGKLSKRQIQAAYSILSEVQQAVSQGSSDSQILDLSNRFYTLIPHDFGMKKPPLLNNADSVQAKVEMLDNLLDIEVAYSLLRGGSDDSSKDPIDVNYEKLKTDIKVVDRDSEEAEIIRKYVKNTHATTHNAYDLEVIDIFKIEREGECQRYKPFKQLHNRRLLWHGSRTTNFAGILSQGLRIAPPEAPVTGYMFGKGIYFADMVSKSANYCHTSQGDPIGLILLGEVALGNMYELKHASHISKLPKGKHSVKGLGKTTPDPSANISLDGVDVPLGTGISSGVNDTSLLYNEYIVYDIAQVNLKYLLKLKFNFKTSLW

Row | Compound | IC50 (recombinant human PARP) [nM] | Dopamine levels ([1]; striatal DA as percentage of Normal (100%)) | DOPAC levels ([1]; striatal DOPAC as percentage of Normal (100%)) | HVA levels ([1]; striatal HVA as percentage of Normal (100%))
1 | O=c1[nH]c(CCCN2CC=C(c3ccccc3)CC2)nc2cccc(Cl)c12 [Compound A, 5-chloro-2-[3-(4-phenyl-3,6-dihydro-1(2H)-pyridinyl)propyl]-4(3H)-quinazolinone] | < 500 | 59* % | 58* % | 64* %
2 | O=c1[nH]c(/C=C/CN2CC=C(c3ccc(F)cc3)CC2)nc2c(Cl)cccc12 [Compound B, 8-chloro-2-{(1E)-3-[4-(4-fluorophenyl)-3,6-dihydro-1(2H)-pyridinyl]-1-propenyl}-4(3H)-quinazolinone] | < 500 |  |  | 
3 | O=c1[nH]c(CCCN2CC=C(c3ccncc3)CC2)nc2c(Cl)cccc12 [Compound C, 8-Chloro-2-{[4-(4-pyridinyl)-3,6-dihydro-1(2H)-pyridinyl]propyl}-4(3H)-quinazolinone] | < 500 |  |  | 
4 | Cc1cccc2c(=O)[nH]c(CCCN3CCc4c([nH]c5ccccc45)C3)nc12 [Compound D, 8-methyl-2-[3-(1,3,4,9-tetrahydro-2H-pyrido[3,4-b]indol-2-yl)propyl]-4(3H)-quinazolinone] | < 500 |  |  | 
